ChEMBL document CHEMBL4402510, “Caprazamycins: Promising lead structures acting on a novel antibacterial target MraY” (Eur J Med Chem, 2019)
Values after ≈ are worked out from the molar mass of the structure shown.

Experiments:
[1] = tested on: Enterococcus faecium; assay: Antibacterial activity against Enterococcus faecium ATCC 19434; assay type: functional
[2] = tested on: Escherichia coli; assay: Antibacterial activity against Escherichia coli ATCC 8730; assay type: functional
[3] = tested on: Pseudomonas aeruginosa; assay: Antibacterial activity against Pseudomonas aeruginosa ATCC 27853; assay type: functional
[4] = tested on: Staphylococcus aureus; assay: Antibacterial activity against methicillin resistant Staphylococcus aureus ATCC 43300; assay type: functional
[5] = tested on: Staphylococcus aureus; assay: Antibacterial activity against Staphylococcus aureus ATCC 25923; assay type: functional
[6] = molecular target: T1, Phospho-N-acetylmuramoyl-pentapeptide-transferase (Aquifex aeolicus (strain VF5), UniProt O66465); assay: Inhibition of MraY in Aquifex aeolicus
T1 sequence (O66465 whole entry): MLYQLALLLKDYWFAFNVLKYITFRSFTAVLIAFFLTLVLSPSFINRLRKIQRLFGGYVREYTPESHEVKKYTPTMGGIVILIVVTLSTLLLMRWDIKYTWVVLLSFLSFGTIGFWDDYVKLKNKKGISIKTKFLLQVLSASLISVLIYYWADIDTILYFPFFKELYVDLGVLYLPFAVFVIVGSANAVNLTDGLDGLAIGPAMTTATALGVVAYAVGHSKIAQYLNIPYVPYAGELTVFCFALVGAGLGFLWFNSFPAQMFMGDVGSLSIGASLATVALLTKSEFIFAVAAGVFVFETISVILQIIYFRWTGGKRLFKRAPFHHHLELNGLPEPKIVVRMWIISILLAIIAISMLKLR

[7] = tested on: Citrobacter freundii; assay: Antibacterial activity against Citrobacter freundii ATCC 8090; assay type: functional
[8] = tested on: Enterococcus faecalis; assay: Antibacterial activity against Enterococcus faecalis ATCC 29212; assay type: functional
[9] = tested on: Enterococcus faecalis; assay: Antibacterial activity against Enterococcus faecalis SR7914 (VRE); assay type: functional
[10] = tested on: Enterococcus faecalis; assay: Antibacterial activity against t Enterococcus faecalis after 20 hrs by NCCLS-based two-fold broth dilution method; assay type: functional; conditions: read-out: MIC
[11] = tested on: Enterococcus faecalis; assay: Antibacterial activity against t Enterococcus faecalis VRE after 20 hrs by NCCLS-based two-fold broth dilution method; assay type: functional; conditions: read-out: MIC
[12] = tested on: Haemophilus influenzae; assay: Antibacterial activity against Haemophilus influenzae ATCC 10211; assay type: functional

## NC[C@H]1O[C@@H](O[C@@H](Cc2cn(Cc3ccc(COc4ccc(C(=O)c5ccccc5)cc4)cc3)nn2)[C@H]2O[C@@H](n3ccc(=O)[nH]c3=O)[C@H](O)[C@@H]2O)[C@H](O)[C@@H]1O
[1]
  MIC: > 128 µg/mL
[2]
  MIC: > 128 µg/mL
[3]
  MIC: > 128 µg/mL
[4]
  MIC: 32 µg/mL (≈ 42.3 µM)
[5]
  MIC: 64 µg/mL (≈ 84.6 µM)
[6]
  IC50: 20 µM
[7]
  MIC: > 128 µg/mL

## CCCCCCCCCCCC(=O)N[C@@H]1CCN[C@@H]([C@H](O[C@@H]2O[C@H](CN)[C@@H](O)[C@H]2O)[C@H]2O[C@@H](n3ccc(=O)[nH]c3=O)[C@H](O)[C@@H]2O)C1
[8]
  MIC: 4 µg/mL (≈ 6.1 µM)
[9]
  MIC: 4 µg/mL (≈ 6.1 µM)
[10]
  MIC: 4 µg/mL (≈ 6.1 µM)
[11]
  MIC: 4 µg/mL (≈ 6.1 µM)

## CCCCCCCCCCc1cn(C[C@H](O[C@@H]2O[C@H](CN)[C@@H](O)[C@H]2O)[C@H]2O[C@@H](n3ccc(=O)[nH]c3=O)[C@H](O)[C@@H]2O)nn1
[1]
  MIC: > 128 µg/mL
[2]
  MIC: > 128 µg/mL
[3]
  MIC: 128 µg/mL (≈ 215 µM)
[4]
  MIC: 64 µg/mL (≈ 107 µM)
[5]
  MIC: 16 µg/mL (≈ 26.8 µM)
[6]
  IC50: 35 µM
[7]
  MIC: > 128 µg/mL

## NC[C@H]1O[C@@H](O[C@@H](Cc2cn(CCCCCCCCCCc3ccccc3)nn2)[C@H]2O[C@@H](n3ccc(=O)[nH]c3=O)[C@H](O)[C@@H]2O)[C@H](O)[C@@H]1O
[1]
  MIC: 64 µg/mL (≈ 95.1 µM)
[2]
  MIC: > 128 µg/mL
[3]
  MIC: > 128 µg/mL
[4]
  MIC: 16 µg/mL (≈ 23.8 µM)
[5]
  MIC: 32 µg/mL (≈ 47.6 µM)
[6]
  IC50: 20 µM
[7]
  MIC: > 128 µg/mL

## CCCCCCCCCCn1cc(C[C@H](O[C@@H]2O[C@H](CN)[C@@H](O)[C@H]2O)[C@H]2O[C@@H](n3ccc(=O)[nH]c3=O)[C@H](O)[C@@H]2O)nn1
[1]
  MIC: > 128 µg/mL
[2]
  MIC: > 128 µg/mL
[3]
  MIC: > 128 µg/mL
[4]
  MIC: 64 µg/mL (≈ 107 µM)
[5]
  MIC: 128 µg/mL (≈ 215 µM)
[6]
  IC50: 15 µM
[7]
  MIC: > 128 µg/mL

## NC[C@H]1O[C@@H](O[C@@H](Cn2cc(CCCCCCCCCCc3ccccc3)nn2)[C@H]2O[C@@H](n3ccc(=O)[nH]c3=O)[C@H](O)[C@@H]2O)[C@H](O)[C@@H]1O
[1]
  MIC: 32 µg/mL (≈ 47.6 µM)
[2]
  MIC: > 128 µg/mL
[3]
  MIC: 64 µg/mL (≈ 95.1 µM)
[4]
  MIC: 16 µg/mL (≈ 23.8 µM)
[5]
  MIC: 64 µg/mL (≈ 95.1 µM)
[6]
  IC50: 30 µM
[7]
  MIC: > 128 µg/mL

## NC[C@H]1O[C@@H](O[C@@H](Cn2cc(CCCCCCCCCCOc3ccc(C(=O)c4ccccc4)cc3)nn2)[C@H]2O[C@@H](n3ccc(=O)[nH]c3=O)[C@H](O)[C@@H]2O)[C@H](O)[C@@H]1O
[1]
  MIC: 128 µg/mL (≈ 161 µM)
[2]
  MIC: > 128 µg/mL
[3]
  MIC: > 128 µg/mL
[4]
  MIC: 8 µg/mL (≈ 10.1 µM)
[5]
  MIC: 16 µg/mL (≈ 20.2 µM)
[6]
  IC50: 25 µM
[7]
  MIC: > 128 µg/mL

## CCCCCCCCCCCCCCCC(=O)OC[C@@H]1[C@H](C(N)=O)[C@@H]([C@H]2O[C@@H](n3ccc(=O)[nH]c3=O)[C@H](O)[C@@H]2O)ON1CCCN
[8]
  MIC: 16 µg/mL (≈ 24.5 µM)
[9]
  MIC: 8 µg/mL (≈ 12.2 µM)
[12]
  MIC: 0.25 µg/mL (≈ 0.382 µM)
